From US20240335541A1, “NANOMATERIALS COMPRISING DIAMINES” (Beam Therapeutics Inc., priority 2021, published 2024)

Experiments:
[1] = LNP hydrodynamic diameter and PDI by DLS (Example 16 LNPs, Stunner); format: physicochemical; settings: Example 16 LNPs: 47.5% Ionizable Lipid: 40% cholesterol: 2.5% PEG-2000 DMG: 10% DPSC, N/P 4-8
Description: (§1) LNPs were prepared with 47.5% Ionizable Lipid (e.g., a compound provided herein): 40% cholesterol: 2.5% PEG-2000 DMG: 10% DPSC and an N/P ratio range of 4-8. LNPs were formed by microfluidic mixing of the lipid and NA solutions using a Precision Nanosystems NanoAssemblr Spark or Benchtop series Instruments, according to the manufacturer's protocol. A ratio of aqueous to organic solvent of approximately 2:1 or 3:1 was maintained during mixing using differential flow rates. After mixing, LNPs were collected, diluted in phosphate buffer saline (PBS) or Tris-buffered saline (TBS) (approximately 1:1 v/v). Further buffer exchange was conducted using dialysis in PBS or TBS at 4° C. for 4 to 24 hours against a 20 kDa filter. After this initial dialysis, each individual LNP preparation was characterized via dynamic light scattering (DLS) to measure the size (e.g., diameter) and polydispersity. LNPs falling within specific diameter and polydispersity ranges were pooled, and further dialyzed against PBS or TBS at 4° C. for 1 to 4 hours against a 100 kDa dialysis cassette. After the second dialysis, LNPs were sterile filtered using 0.22 μm filter and stored at 4° C. for further use.
LNP hydrodynamic diameter and polydispersity index (PDI) were measured using high throughput dynamic light scattering (DLS) (Stunner, Unchained Labs). LNPs were diluted 1×TBS or PBS to an appropriate concentration and analyzed.

[2] = LNP encapsulation efficiency by Ribogreen assay (Example 16 LNPs); format: physicochemical; settings: Example 16 LNPs: 47.5% Ionizable Lipid: 40% cholesterol: 2.5% PEG-2000 DMG: 10% DPSC, N/P 4-8
Description: as §1
RNA concentration and encapsulation efficiency were determined by Ribogreen assay (BioTek Synergy LX plate reader).

| SMILES | Mean Diameter [1] [nm] | Mean PDI [1] | Mean Encapsulation Efficiency [2] [%] |
| --- | --- | --- | --- |
| CC/C=C\CCCCOC(CCC(=O)OCCCCCCCN(CCO)CCCN(CCCCCCCCCOC(=O)C(CCCC)CCCCCC)CCCCCCCCCOC(=O)C(CCCC)CCCCCC)OCCCC/C=C\CC (stereo not drawn) [Example 7-25] | 92.4 | 0.13 | 62.8 |
| CC/C=C\CCCCOC(CCC(=O)OCCCCCCCN(CCCCCCCOC(=O)CCC(OCCCC/C=C\CC)OCCCC/C=C\CC)CCCN(CCCO)CCCCCCCC(=O)OCCCCCCCCC)OCCCC/C=C\CC [Example 7-28, ((3-((3-hydroxypropyl)(8-(nonyloxy)-8-oxooctyl)amino)propyl)azanediyl)bis(heptane-7,1-diyl) bis(4,4-bis(((Z)-oct-5-en-1-yl)oxy)butanoate)] | 98.8 | 0.11 | 49.6 |
| CC/C=C\CCCCOC(CCC(=O)OCCCCCCN(CCO)CCCN(CCCCCC(=O)OCCCCCCCCC)CCCCCC(=O)OCCCCCCCCC)OCCCC/C=C\CC [Example 7-5, dinonyl 6,6′-((3-((6-((4,4-bis(((Z)-oct-5-en-1-yl)oxy)butanoyl)oxy)hexyl)(2-hydroxyethyl)amino)propyl)azanediyl)dihexanoate] | 81.3 | 0.12 | 49.0 |
| CC/C=C\CCCCOC(CCC(=O)OCCCCCCN(CCO)CCCN(CCCCCCOC(=O)CCC(OCCCC/C=C\CC)OCCCC/C=C\CC)CCCCCCOC(=O)CCC(OCCCC/C=C\CC)OCCCC/C=C\CC)OCCCC/C=C\CC [Example 7-1] | 90.2 | 0.12 | 80.8 |
| CC/C=C\CCCCOC(CCC(=O)OCCCCCCN(CCCO)CCN(CCCCCCOC(=O)CCC(OCCCC/C=C\CC)OCCCC/C=C\CC)CCCCCCOC(=O)CCC(OCCCC/C=C\CC)OCCCC/C=C\CC)OCCCC/C=C\CC [Example 7-16] | 91.3 | 0.11 | 81.8 |
| CC/C=C\CCCCOC(CCC(=O)OCCCCCCCN(CCCO)CCCN(CCCCCCCOC(=O)CCC(OCCCC/C=C\CC)OCCCC/C=C\CC)CCCCCCCOC(=O)CCC(OCCCC/C=C\CC)OCCCC/C=C\CC)OCCCC/C=C\CC [Example 7-29] | 95.4 | 0.13 | 83.2 |
| CC/C=C\CCCCOC(CCC(=O)OCCCCCCN(CCCCCCOC(=O)CCC(OCCCC/C=C\CC)OCCCC/C=C\CC)CCCN(CCO)CCCCCCCC(=O)OCCCCCCCCC)OCCCC/C=C\CC [Example 7-3, ((3-((2-hydroxyethyl)(8-(nonyloxy)-8-oxooctyl)amino)propyl)azanediyl)bis(hexane-6,1-diyl) bis(4,4-bis(((Z)-oct-5-en-1-yl)oxy)butanoate)] | 69.1 | 0.13 | 85.1 |
| CC/C=C\CCCCOC(CCC(=O)OCCCCCCN(CCO)CCCN(CCCCCCCC(=O)OCCCCCCCCC)CCCCCCCC(=O)OCCCCCCCCC)OCCCC/C=C\CC [Example 7-6] | 85.7 | 0.10 | 46.0 |
| CC/C=C\CCCCOC(CCC(=O)OCCCCCCN(CCCO)CCN(CCCCCCCCCOC(=O)C(CCCC)CCCCCC)CCCCCCCCCOC(=O)C(CCCC)CCCCCC)OCCCC/C=C\CC (stereo not drawn) [Example 7-21] | 87.1 | 0.12 | 60.9 |
| CC/C=C\CCCCOC(CCC(=O)OCCCCCCN(CCCO)CCN(CCCCCCOC(=O)C(CCCC)CCCCCC)CCCCCCOC(=O)C(CCCC)CCCCCC)OCCCC/C=C\CC (stereo not drawn) [Example 7-20] | 97.0 | 0.17 | 71.4 |
